# How the values were obtained:
# [1] = Stability of the analytes in rat plasma QC samples under different storage conditions; type: physicochemical; conditions: n = 6; for Stability (RE%) Short-Term: 4 h at room temperature; for Stability (RE%) Freeze-Thaw: three freeze-thaw cycles (−20 °C / ambient); for Stability (RE%) Long-Term: −20 °C for 2 weeks
# [2] = as above; type: physicochemical; conditions: post-preparation samples, 12 h at 4 °C, n = 6
# Description: The post-preparation samples were analyzed after storage for 12 h at 4 °C. The peak area ratio response of stability samples was determined and versus those freshly prepared. For all stability results, the analyzing samples were considered stable when the percentage of relative error (RE) was within ±15% compared with freshly prepared QC samples.
# [3] = Pharmacokinetic study of seven phenolic acids in rat plasma after oral administration of E. purpurea extract (UHPLC-ESI-MS/MS); type: in vivo; conditions: male SD rats, oral E. purpurea extract 10 g/kg, n = 12, mean ± SD; for AUC(0-inf) / AUC(0-t) / Cmax / Tmax / half-life: Sprague-Dawley, rat
# Description: Twelve male Sprague-Dawley (SD) rats (body weight 220 ± 20 g) were provided by Heilongjiang University of Chinese Medicine (Harbin, China). Each rat fasted 12 h before administration, with free drinking during the experiment. Blood samples were obtained from rats after oral administration of the extract of E. purpurea with a dose of 10 g/kg body weight. Blood samples (0.25 mL) of the retinal venous plexus were taken at 0.083, 0.25, 0.75, 1.0, 1.5, 2, 3, 4, 6, 8, 12, 24 and 36 h, then moved immediately into a 0.5 mL centrifuge tube that was spread with heparin at each time point. Meanwhile, the animal blood was centrifuged at 13,000 rpm for 5 min at 4 °C. The plasma was frozen in a −20 °C refrigerator in case of deterioration.
# First, the frozen plasma was thawed at room temperature and then a liquid–liquid extraction (LLE) method was utilized. Then, a 100 μL aliquot of each plasma sample was removed except for the calibration standards which was mixed with 10 μL IS into a 10 mL glass tube. We continued by adding 100 μL methanol and 100 μL 30% formic acid, vortex-mixing for 1 min, then extracted 3 mL ethyl acetate, vortex-mixing for 3 min, centrifuged for 5 min (3500 rpm), and transferred the upper organic layer into a new tube. The layer of ethyl acetate was dried with a stream of nitrogen, the dry residue was dissolved with a 100 μL mobile phase, vortexed for 2 min and samples were filtered by a 0.22 μm microporous membrane. A 10 μL aliquot was injected into the UHPLC-ESI-MS/MS system.
# The rat plasma concentration-time curves of seven compounds were plotted. After oral administration of E. purpurea extract in twelve rats, the maximum drug concentration in rat plasma (Cmax) and the time to reach maximum drug concentration (Tmax) were directly obtained from concentration-time data. The elimination rate constant (Ke) was calculated by linear regression of the terminal points in a semi-log plot of the plasma concentration against time. The elimination half-life (T1/2) was calculated by the formula T1/2 = 0.693/Ke. Other pharmacokinetic parameters including the area under the concentration-time curve (AUC0→t), and the area under the plasma concentration-time curve to time infinity (AUC0→∞) were calculated using non-compartmental pharmacokinetics analysis.
Compound,Stability (RE%) Short-Term ([1]; high QC),Stability (RE%) Freeze-Thaw ([1]; high QC),Stability (RE%) Long-Term ([1]; high QC),Stability (RE%) Short-Term ([1]; low QC),Stability (RE%) Freeze-Thaw ([1]; low QC),Stability (RE%) Long-Term ([1]; low QC),Stability (RE%) Short-Term ([1]; medium QC),Stability (RE%) Freeze-Thaw ([1]; medium QC),Stability (RE%) Long-Term ([1]; medium QC),Stability (RE%) Post-Preparative ([2]; high QC),Stability (RE%) Post-Preparative ([2]; low QC),Stability (RE%) Post-Preparative ([2]; medium QC),AUC(0-inf) [3],AUC(0-t) [3],Cmax [3],Tmax [3],half-life [3],T1/2 [3]
"O=C(O)c1ccc(O)c(O)c1 [3,4-Dihydroxy benzoic acid, 3,4-dihydroxybenzoic acid]",4.80%,−0.52%,3.65%,2.03%,−0.11%,−2.93%,10.18%,6.57%,2.30%,−4.01%,9.29%,−5.47%,2050 ± 116 ng·h/mL,1930 ± 123 ng·h/mL,127 ± 18.1 ng/mL,0.77 ± 0.07 h,7.45 ± 0.87 h,–
"O=C(O)c1ccc(O)cc1 [4-Hydroxy benzoic acid, 4-hydroxybenzoic acid]",−2.50%,−1.01%,2.81%,10.62%,10.03%,−3.31%,−0.46%,2.63%,0.21%,7.71%,−6.42%,10.47%,1950 ± 176 ng·h/mL,1640 ± 122 ng·h/mL,145 ± 11.6 ng/mL,1.96 ± 0.14 h,14.9 ± 5.37 h,–
"O=C(O)/C=C/c1ccc(O)c(O)c1 [Caffeic acid, caffeic acid]",6.12%,6.15%,−1.54%,7.45%,7.79%,6.01%,−0.16%,2.18%,1.00%,9.83%,10.35%,3.89%,9330 ± 442 ng·h/mL,9220 ± 453 ng·h/mL,855 ± 35.9 ng/mL,8 h,5.31 ± 0.5 h,–

# Now from value to molecule:
Stability (RE%) Short-Term ([1]; high QC),Stability (RE%) Freeze-Thaw ([1]; high QC),Stability (RE%) Long-Term ([1]; high QC),Stability (RE%) Short-Term ([1]; low QC),Stability (RE%) Freeze-Thaw ([1]; low QC),Stability (RE%) Long-Term ([1]; low QC),Stability (RE%) Short-Term ([1]; medium QC),Stability (RE%) Freeze-Thaw ([1]; medium QC),Stability (RE%) Long-Term ([1]; medium QC),Stability (RE%) Post-Preparative ([2]; high QC),Stability (RE%) Post-Preparative ([2]; low QC),Stability (RE%) Post-Preparative ([2]; medium QC),AUC(0-inf) [3],AUC(0-t) [3],Cmax [3],Tmax [3],half-life [3],T1/2 [3],Compound
−8.77%,−13.12%,−1.89%,−4.21%,−7.10%,7.93%,4.61%,−3.80%,6.80%,−4.91%,−0.89%,4.84%,6020 ± 498 ng·h/mL,5620 ± 453 ng·h/mL,359 ± 43.8 ng/mL,8 h,8.48 ± 0.71 h,–,"COc1cc(/C=C/C(=O)O)ccc1O [Ferulic acid, ferulic acid]"
−5.73%,−2.61%,−1.30%,−1.95%,−3.75%,−0.66%,−1.50%,4.48%,−0.79%,−6.08%,−10.74%,−7.64%,1950 ± 164 ng·h/mL,1650 ± 133 ng·h/mL,122 ± 16.4 ng/mL,1.54 ± 0.14 h,13.2 ± 1.66 h,–,"COc1cc(C(=O)O)cc(OC)c1O [Syringic acid, syringic acid]"
1.59%,5.28%,−0.32%,2.24%,−6.56%,2.91%,−0.67%,5.74%,−0.37%,−8.03%,9.11%,−6.34%,3440 ± 234 ng·h/mL,3140 ± 264 ng·h/mL,228 ± 11.9 ng/mL,0.75 h,–,8.89 ± 1.12 h,"COc1cc(C(=O)O)ccc1O [Vanillic acid, vanillic acid]"
−4.81%,−8.78%,−5.30%,−3.59%,−7.57%,−6.75%,1.57%,−0.82%,−5.40%,7.12%,8.52%,11.50%,3440 ± 218 ng·h/mL,3130 ± 156 ng·h/mL,293 ± 16.4 ng/mL,0.75 h,9.32 ± 1.29 h,–,"O=C(O)/C=C/c1ccc(O)cc1 [p-Coumaric acid, p-coumaric acid]"
